According to patent publication US20100048604A1, “Ligands for Aldoketoreductases” (priority 2004, published 2010):
Residue numbers refer to the chain shown, from its start.

Experiments:
Assay type in all cases: biochemical
AKR1C1 = target: T1, AKR1C1 (Homo sapiens, UniProt Q04828); assay: Steady state kinetic parameters of fluorogenic substrates with purified AKR1C isozymes; set-up: key: no activity = 10 μg enzyme produced less than 0.1 nmol product per min (determined fluorimetrically); conditions: isozyme 1C1; 10 μg enzyme, fluorimetric
T1 construct: gift of the Penning lab (University of Pennsylvania School of Medicine)
T1 sequence (Q04828 1-323): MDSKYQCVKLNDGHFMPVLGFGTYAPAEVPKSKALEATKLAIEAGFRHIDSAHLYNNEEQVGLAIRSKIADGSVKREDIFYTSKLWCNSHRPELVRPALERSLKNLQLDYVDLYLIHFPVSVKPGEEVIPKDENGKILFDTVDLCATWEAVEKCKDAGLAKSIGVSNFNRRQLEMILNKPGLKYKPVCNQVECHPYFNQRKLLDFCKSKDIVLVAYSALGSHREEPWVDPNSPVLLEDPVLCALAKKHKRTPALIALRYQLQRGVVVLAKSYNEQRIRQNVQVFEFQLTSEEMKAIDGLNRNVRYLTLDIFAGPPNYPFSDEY
Description: (§1) AKR1C2 and AKR1C3 Selective Probes: Probes (5a-5i) were examined as substrates for the four purified human HSD isozymes (AKR1C1-AKR1C4) under standard assay conditions [catalytic quantities of enzyme, an excess of cofactor (NADPH)]. The initial reaction rates were used to derive standard kinetic parameters (kcat and Km, Materials and Methods).
(§2) Substrate tolerance of AKR1Cs: Isozyme Activity with 5a-5i: Activity of the second generation of fluorogenic substrates with the AKR1C isozymes was determined as follows. To a STARNA semi-micro fluorimeter cell (with 4 polished windows) was added 100 μL of 1 M potassium phosphate buffer (pH 6), 840 μL doubly deionized water, and 20 μL of 12.5 mM NADPH. After mixing the aqueous components thoroughly, 20 μL of acetonitrile was added as a cosolvent and mixed well. 20 μL of 2.5 mM second generation fluorogenic ketone in acetonitrile (5a-5i) was then added and mixed. 4 μL of undiluted AKR1C (provided generously by the Penning lab at concentrations of 2.5 mg/mL) were then added to the cuvette for a total of 10 μg purified enzyme in the 1 mL assay volume. Fluorescence arising from the respective alcohol reduction product was then monitored over the course of 5-10 minutes.
(§3) Binding constant and catalytic rates (Km and kcat) of the second generation of fluorogenic substrates was determined as follows. To a STARNA semi-micro fluorometer cell (with 4 polished windows) was added 100 μL of 1 M potassium phosphate buffer (pH 6), 840 μL doubly deionized water, and 20 AL of 12.5 mM NADPH. After mixing the aqueous components thoroughly, 20 μL of acetonitrile was added as a cosolvent and mixed well. 20 μL of the second generation fluorogenic ketone (5a-5i) was then added and mixed to achieve assay concentrations of 5Km to Km/5. To initiate the reduction, 2 or 4 μL of diluted AKR1C (1:2 to 1:100, depending on the kinetics of a particular isozyme's reduction of a substrate) was then added to the cuvette. Fluorescence arising from the respective alcohol reduction product was then monitored over the course of 3 minutes (Excitation and emission band pass slits both at 4 nm, lamp 700 V, λexc 410 nm, λem 510). The rate of product formation, expressed in units of nanomoles per minute, were calculated according to previously published procedures (Wierzchowski, J.; Dafeldecker, W. P.; Holmquist, B.; Vallee, B. L. Anal. Biochem. 1989, 178, 57-62):
(§4) initial rate=[nst×(Ft−F0)/(Fst)]/t (1)
(§5) where Ft and F0 represent the fluorescence at times t and 0 minutes, nst is the nanomoles of product in a known concentration of product, and Fst is the fluorescence resulting from nst of product. Kinetic parameters were approximated by GraFit (Erithacus Software, Surrey, UK) nonlinear regression analysis program to fit the untransformed data to a hyperbolic function as originally described (Wierzchowski, J.; Dafeldecker, W. P.; Holmquist, B.; Vallee, B. L. Anal. Biochem. 1989, 178, 57-62). Reported enzymatic kinetic parameters are the average of three independent determinations from three different preparations of substrate and enzyme.

AKR1C3 [1] = target: T2, AKR1C3 (Homo sapiens, UniProt P42330); assay: as above; conditions: isozyme 1C3, fluorimetric; for activity as substrate (product formation): 10 μg enzyme; for Kcat / Km: potassium phosphate buffer pH 6, NADPH
T2 construct: gift of Professor Trevor Penning (University of Pennsylvania School of Medicine)
T2 sequence (P42330 1-323): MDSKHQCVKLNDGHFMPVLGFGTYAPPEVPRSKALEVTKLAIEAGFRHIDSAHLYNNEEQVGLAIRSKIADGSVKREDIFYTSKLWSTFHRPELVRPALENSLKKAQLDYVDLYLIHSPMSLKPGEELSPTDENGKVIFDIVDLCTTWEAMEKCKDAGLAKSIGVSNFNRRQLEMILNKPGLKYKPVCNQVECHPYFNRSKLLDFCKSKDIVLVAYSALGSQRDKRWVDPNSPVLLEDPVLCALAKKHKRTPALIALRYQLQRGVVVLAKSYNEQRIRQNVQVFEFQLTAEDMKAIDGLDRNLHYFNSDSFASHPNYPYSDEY
Method: The initial reaction rates were used to derive standard kinetic parameters (kcat and Km, Materials and Methods).
as §2, with “To a STARNA semi-micro fluorimeter cell (with 4 polished windows) was added 100 μL of 1 M potassium phosphate buffer (pH 6), 840 μL doubly deionized water, and 20 μL of 12.5 mM NADPH.” left out, “20 μL of 2.5 mM second generation fluorogenic ketone in acetonitrile (5a-5i) was then added and mixed.” left out
Binding constant and catalytic rates (Km and kcat) of the second generation of fluorogenic substrates was determined as follows. […] After mixing the aqueous components thoroughly, 20 μL of acetonitrile was added as a cosolvent and mixed well. […] To initiate the reduction, 2 or 4 μL of diluted AKR1C (1:2 to 1:100, depending on the kinetics of a particular isozyme's reduction of a substrate) was then added to the cuvette. Fluorescence arising from the respective alcohol reduction product was then monitored over the course of 3 minutes (Excitation and emission band pass slits both at 4 nm, lamp 700 V, λexc 410 nm, λem 510).
as §4
where Ft and F0 represent the fluorescence at times t and 0 minutes, nst is the nanomoles of product in a known concentration of product, and Fst is the fluorescence resulting from nst of product. […] Reported enzymatic kinetic parameters are the average of three independent determinations from three different preparations of substrate and enzyme.

AKR1C4 = target: T3, AKR1C4 (Homo sapiens, UniProt P17516); assay: as above; set-up: key to activity as substrate (product formation): no activity = 10 μg enzyme produced less than 0.1 nmol product per min (determined fluorimetrically); conditions: isozyme 1C4, fluorimetric; for activity as substrate (product formation): 10 μg enzyme; for Kcat / Km: potassium phosphate buffer pH 6, NADPH
T3 construct: gift of the Penning lab (University of Pennsylvania School of Medicine)
T3 sequence (P17516 1-323): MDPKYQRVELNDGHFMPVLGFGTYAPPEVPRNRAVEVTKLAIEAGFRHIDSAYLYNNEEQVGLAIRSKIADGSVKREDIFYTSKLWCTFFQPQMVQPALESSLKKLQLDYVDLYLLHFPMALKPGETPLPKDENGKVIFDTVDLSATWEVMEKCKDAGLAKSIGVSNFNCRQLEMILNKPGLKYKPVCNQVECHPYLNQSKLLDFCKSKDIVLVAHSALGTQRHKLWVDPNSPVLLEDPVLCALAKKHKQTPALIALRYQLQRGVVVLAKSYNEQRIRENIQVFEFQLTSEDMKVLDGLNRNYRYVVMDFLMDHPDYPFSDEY
Description: as §1, §2, §3, §4, §5

AKR1C2 = target: T4, AKR1C2 (Homo sapiens, UniProt P52895); assay: as above; set-up: key to activity as substrate (product formation): no activity = 10 μg enzyme produced less than 0.1 nmol product per min (determined fluorimetrically); conditions: isozyme 1C2, fluorimetric; for activity as substrate (product formation): 10 μg enzyme
T4 construct: gift of the Penning lab (University of Pennsylvania School of Medicine)
T4 sequence (P52895 1-323): T1 sequence (Q04828 1-323) with T38V, R47H, L54V, C87S, V151M, R170H, Q172L
Description: as §1, §2, §3, §4, §5

AKR1C3 [2] = target: T2, AKR1C3; assay: Determination of kinetic parameters for AKR1C3 (fluorogenic substrate 5); conditions: Type 2 isozyme of 3α-HSD (AKR 1C3)
Method: Whether the activity of human enzymes may be imaged by probe 5 was investigated. Type 2 isozyme of 3α-HSD (AKR 1C3) was selected for this study owing to its important physiological role.
Fluorogenic substrate 5 reduction was monitored on a Hitachi F-4500 fluorimeter in Starna quartz cuvettes fluorometrically in 1 mL systems containing 100 mM potassium phosphate pH 6.0 containing excess of NADPH cofactor (250 μM) and various amounts of the substrate (0.1953-50 μM) dissolved in 4% acetonitrile. […] Cuvettes were mixed thoroughly after addition of cofactor, cosolvent, and substrate. Reactions were initiated by the addition of 4 μL of dilute AKR1C3 (115 μg/mL) and were corrected for nonenzymatic rates. All reactions were followed by monitoring the increase in fluorescence of the product alcohol for 5 minutes at λem 510 nm with λex 440 nm (Excitation and emission band pass slits both at 2.5 nm, lamp 900 V) at 37° C. The initial velocities, expressed in units of nanomoles per minute, were calculated according to previously published procedures (Wierzchowski, J.; Dafeldecker, W. P.; Holmquist, B.; Vallee, B. L. Anal. Biochem. 1989, 178, 57-62): initial rate=[nst×(Ft−F0)/(Fst)]/t where Ft and F0 represent the fluorescence at time t and 0, nst is the nanomoles of the product standard, and Fst is the fluorescence resulting from nst of product. Kinetic constants were approximated using the GraFit (Erithacus Software, Surrey, UK) non-linear regression analysis program to fit the untransformed data to a hyperbolic function as originally described (Wilkinson, G. N. Biochem. J. 1961, 80, 324-332), yielding estimated values of kcat, Km, and their associated standard errors.

SMILES | activity as substrate (product formation) (AKR1C1) | activity as substrate (product formation) (AKR1C3 [1]) | activity as substrate (product formation) (AKR1C4) | activity as substrate (product formation) (AKR1C2) | Kcat (AKR1C3 [1]) | Km (AKR1C3 [1]) | Kcat (AKR1C4) | Km (AKR1C4) | Kcat (AKR1C2; potassium phosphate buffer pH 6, NADPH) | Kcat (AKR1C3 [2]) | Km (AKR1C3 [2])
CC(C)C(=O)c1cc(=O)oc2c3c4c(cc12)CCCN4CCC3 | no activity | no activity | no activity | no activity | – | – | – | – | – | – | –
O=C(c1cc(=O)oc2c3c4c(cc12)CCCN4CCC3)C1CCCCC1 | no activity | no activity | no activity | no activity | – | – | – | – | – | – | –
O=C1CCc2c1c1cc3c4c(c1oc2=O)CCCN4CCC3 | – | – | no activity | – | 0.12 s⁻¹ | 0.13 µM | – | – | – | – | –
CC(=O)c1cc(=O)oc2cc(N(C)C)ccc12 | – | – | – | – | 0.145 s⁻¹ | 4.3 µM | 0.035 s⁻¹ | 14.8 µM | – | – | –
CC(=O)c1cc(=O)oc2cc3c(cc12)CCCN3 | no activity | – | no activity | – | 0.155 s⁻¹ | 4.3 µM | – | – | 0.00983 s⁻¹ | – | –
CC(=O)c1cc(=O)oc2c3c(ccc12)NCCC3 | – | – | – | – | 0.115 s⁻¹ | 8.3 µM | 0.0233 s⁻¹ | 40.2 µM | – | – | –
C[C@]12CCC(=O)C[C@@H]1CC[C@@H]1[C@@H]2CC[C@]2(C)[C@@H](O)CC[C@@H]12 [5α-dihydrotestosterone, reference compound] | – | – | – | – | 0.00417 s⁻¹ | 26 µM | – | – | – | 0.00417 s⁻¹ | 26 µM
CC(=O)c1cc(=O)oc2c3c4c(cc12)CCCN4CCC3 [drawing 207] | – | – | – | – | 0.125 s⁻¹ | 1.1 µM | 0.00633 s⁻¹ | 20.6 µM | – | – | –
O=C(c1ccccc1)c1cc(=O)oc2c3c4c(cc12)CCCN4CCC3 [drawing 210] | – | – | – | – | 0.09 s⁻¹ | 0.051 µM | 0.0103 s⁻¹ | 6.2 µM | – | – | –
CC(=O)c1c(Br)c(=O)oc2c3c4c(cc12)CCCN4CCC3 [drawing 212] | no activity | no activity | no activity | no activity | – | – | – | – | – | – | –
CC(=O)c1c(-c2ccccc2)c(=O)oc2c3c4c(cc12)CCCN4CCC3 [drawing 213] | no activity | no activity | no activity | no activity | – | – | – | – | – | – | –
